The target in one assay is T1, AuroraA-TPX2 (Homo sapiens, UniProt O14965).
T1 construct: 20 μL of AuroraA-TPX2 KD GST for a final volume of about 41 μL; GST
T1 sequence (O14965 133-383 limits assumed): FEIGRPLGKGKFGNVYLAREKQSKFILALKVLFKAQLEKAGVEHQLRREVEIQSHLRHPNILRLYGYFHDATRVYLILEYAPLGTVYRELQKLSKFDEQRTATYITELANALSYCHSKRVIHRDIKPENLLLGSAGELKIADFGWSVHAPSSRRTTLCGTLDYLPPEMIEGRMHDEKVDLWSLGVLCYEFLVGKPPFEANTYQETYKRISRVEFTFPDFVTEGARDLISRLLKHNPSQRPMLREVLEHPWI
T1 sequence (Q9ULW0 1-43 partner limits assumed): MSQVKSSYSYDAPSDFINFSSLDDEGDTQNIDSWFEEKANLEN
The assay is described as follows: AuroraA-TPX2 Homogeneous Time Resolved Fluorescent (HTRF) kinase assay. The format is biochemical. To be noted: average; read-out: AurA_IC50_IP (uM Avg). The method, boiled down: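 HTRF read-out (Eu 615 nm to APC 655 nm) of phosphorylated biotin-PLK, detected with 0.02 nM europium anti-phosphoPLK antibody and 0.0005 mg/mL SA-APC after overnight equilibration.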
Background: In TR-FRET formats the signal depends on donor and acceptor labels being close together.

In another assay the target is T2, AuroraB (Homo sapiens, UniProt Q96GD4).
T2 construct: 20 μL of AuroraB FL H is for a final volume of 41 μL; His
T2 sequence (Q96GD4 whole entry): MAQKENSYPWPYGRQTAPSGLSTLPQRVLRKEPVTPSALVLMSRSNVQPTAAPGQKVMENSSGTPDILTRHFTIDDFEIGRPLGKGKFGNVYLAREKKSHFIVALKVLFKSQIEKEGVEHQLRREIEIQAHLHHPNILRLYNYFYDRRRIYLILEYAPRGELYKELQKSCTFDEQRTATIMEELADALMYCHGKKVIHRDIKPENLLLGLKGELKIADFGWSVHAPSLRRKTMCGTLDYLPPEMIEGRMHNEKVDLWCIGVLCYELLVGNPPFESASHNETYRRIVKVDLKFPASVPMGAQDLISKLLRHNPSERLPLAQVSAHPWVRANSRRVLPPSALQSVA
Put plainly: AuroraB Homogeneous Time Resolved Fluorescent (HTRF) kinase assay. The format is biochemical. As to conditions: average; read-out: AurB_IC50_IP (uM Avg). The method, boiled down:
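Full-length His-tagged kinase phosphorylates biotinylated Histone H3 (0.1 μM final) with ATP in pH 7.5 HEPES containing MgCl, MnCl, DTT and BSA for about 90 min. EDTA-containing detection mix with SA-APC and Eu-anti-phosphoHistone H3 then equilibrated about 60 min; HTRF read with 320 nm excitation, emissions 615/655 nm.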

`COc1cnc2c(Sc3ccc(Nc4nnc(N5CCC[C@@H](OC)C5)c5ccccc45)cc3)ccnc2c1` [compound 532]: the IC50 was found to be 0.061 µM on AuroraA-TPX2 and 0.019 µM on AuroraB.

For the compound `COc1cnc2c(Oc3ccc(Nc4nnc(-c5ccc(C)cc5)c5ccccc45)cc3F)ccnc2c1` [compound 187, N-(3-fluoro-4-((7-(methyloxy)-1,5-naphthyridin-4-yl)oxy)phenyl)-4-(4-methylphenyl)-1-phthalazinamine], the figures for the IC50 at AuroraA-TPX2 and at AuroraB were 0.006 µM and 0.004 µM, respectively.

As for `N#Cc1ccc2c(Oc3ccc(Nc4nnc(-c5ccc(Cl)c(C#N)c5)c5ccccc45)cc3)ccnc2c1` [compound 231, 4-((4-((4-(4-chloro-3-cyanophenyl)-1-phthalazinyl)amino)phenyl)oxy)-7-quinolinecarbonitrile], the IC50 on AuroraA-TPX2 was found to be 0.379 µM; at AuroraB, 0.032 µM.

Turning to `Clc1ccc(-c2nnc(Nc3ccc(Sc4ccnc5cccnc45)cc3)c3ccccc23)cc1` [compound 308, 4-(4-chlorophenyl)-N-(4-(1,5-naphthyridin-4-ylthio)phenyl)-1-phthalazinamine], the IC50 on AuroraA-TPX2 came to 0.029 µM; at AuroraB it was 0.004 µM.

As for `COc1cnc2c(Sc3ccc(Nc4nnc(-c5ccc(F)cc5)c5ccccc45)cc3)ccnc2c1` [compound 356, 4-(4-fluorophenyl)-N-(4-(7-methoxy-1,5-naphthyridin-4-ylthio)phenyl)phthalazin-1-amine], the IC50 was 0.036 µM on AuroraA-TPX2 and 0.012 µM at AuroraB.

For `COc1cnc2c(Oc3ccc(Cc4nnc(-c5ccc(C)cc5)c5ccccc45)cc3)ccnc2c1` [compound 126, 3-(methyloxy)-8-((4-((4-(4-methylphenyl)-1-phthalazinyl)methyl)phenyl)oxy)-1,5-naphthyridine], the values for the IC50 at AuroraA-TPX2 and at AuroraB were 0.388 µM and 0.017 µM, respectively.

As for `Clc1ccc(-c2nnc(Nc3ccc(Sc4ccnc5cc(Br)cnc45)cc3)c3ccccc23)cc1` [compound 324, N-(4-((7-bromo-1,5-naphthyridin-4-yl)thio)phenyl)-4-(4-chlorophenyl)-1-phthalazinamine], the IC50 at AuroraA-TPX2 stood at 0.035 µM; on AuroraB, 0.063 µM.

Take `COc1cnc2c(Oc3ccc(Nc4nnc(-c5ccc6sc(C)nc6c5)c5ccccc45)cc3)ccnc2c1` [compound 195, 4-(2-methyl-1,3-benzothiazol-5-yl)-N-(4-((7-(methyloxy)-1,5-naphthyridin-4-yl)oxy)phenyl)-1-phthalazinamine]: the IC50 at AuroraA-TPX2 worked out at 0.088 µM; on AuroraB, 0.005 µM.

For `O=C(c1cc2nccc(Oc3ccc(Nc4nnc(-c5ccc(Cl)cc5)c5ccccc45)cc3)c2s1)N1CCOCC1` [compound 259, 4-(4-chlorophenyl)-N-(4-((2-(4-morpholinylcarbonyl)thieno-[3,2-b]pyridin-7-yl)oxy)phenyl)-1-phthalazinamine], the values for the IC50 on AuroraA-TPX2 and on AuroraB were 0.023 µM and 0.006 µM, respectively.

With `COc1ccc2nccc(Oc3ccc(Nc4nnc(-c5ccccc5)c5ccccc45)cc3)c2n1` [compound 347, N-(4-(6-methoxy-1,5-naphthyridin-4-yloxy)phenyl)-4-phenylphthalazin-1-amine], the figures for the IC50 at AuroraA-TPX2 and on AuroraB were 0.067 µM and 0.01 µM, respectively.

With `COc1ccc2nccc(Oc3ccc(Nc4nnc(-c5ccc(Cl)cn5)c5ccccc45)cc3)c2c1` [compound 278, 4-(5-chloro-2-pyridinyl)-N-(4-((6-(methyloxy)-4-quinolinyl)oxy)phenyl)-1-phthalazinamine], the IC50 at AuroraA-TPX2 turned out to be 0.082 µM; at AuroraB it was 0.004 µM.

Regarding `COc1cc2nccc(Oc3ccc(Nc4nnc(-c5ccc(C)cc5)c5ccccc45)cc3)c2cc1C(N)=O` [compound 211, 7-(methyloxy)-4-((4-((4-(4-methylphenyl)-1-phthalazinyl)amino)phenyl)oxy)-6-quinolinecarboxamide], the IC50 stood at 0.006 µM on AuroraA-TPX2 and 0.001 µM at AuroraB.

For the compound `c1ccc(-c2nnc(Nc3ccc(Sc4ccnc5ccsc45)cc3)c3ccccc23)cc1` [compound 355, 4-phenyl-N-(4-(thieno[3,2-b]pyridin-7-ylthio)phenyl)phthalazin-1-amine], the IC50 was 0.241 µM at AuroraA-TPX2 and 0.006 µM on AuroraB.

For `COc1cnc2c(Sc3ccc(Nc4nnc(N5CCN6CCCC[C@@H]6C5)c5ccccc45)cc3)ccnc2c1` [compound 584], the IC50 amounted to 0.009 µM on AuroraA-TPX2 and 0.005 µM at AuroraB.

Turning to `Fc1cc(Nc2nnc(-c3ccccc3)c3ccccc23)ccc1Oc1ccnc2ccccc12` [compound 115, N-(3-fluoro-4-(4-quinolinyloxy)phenyl)-4-phenyl-1-phthalazinamine], the IC50 at AuroraA-TPX2 stood at 0.163 µM; on AuroraB, 0.006 µM.

Consider `COc1cnc2c(Oc3ccc(Nc4nnc(-c5ccc6[nH]ccc6c5)c5ccccc45)cc3)ccnc2c1` [compound 167, 4-(1H-indol-5-yl)-N-(4-((7-(methyloxy)-1,5-naphthyridin-4-yl)oxy)phenyl)-1-phthalazinamine], for which the IC50 at AuroraA-TPX2 is 0.013 µM; at AuroraB it was 0.004 µM.

Consider `COc1cnc2c(Sc3ccc(Nc4nnc(OCC(F)(F)F)c5ccccc45)cc3)ccnc2c1` [compound 513], for which the IC50 at AuroraA-TPX2 stood at 0.231 µM; on AuroraB, 0.03 µM.

In the case of `O=c1ccc2nccc(Sc3ccc(Nc4nnc(-c5ccc(Cl)cn5)c5ccccc45)cc3)c2[nH]1` [Example 405, 8-(4-(4-(5-Chloropyridin-2-yl)phthalazin-1-ylamino)phenylthio)-1,5-naphthyridin-2(1H)-one], the IC50 on AuroraA-TPX2 turned out to be 0.042 µM; on AuroraB it was 0.007 µM.

Regarding `COc1ccc2nccc(Sc3ccc(Nc4nnc(-c5ccc(Cl)cc5)c5ccccc45)cc3)c2n1` [compound 348, 4-(4-chlorophenyl)-N-(4-(6-methoxy-1,5-naphthyridin-4-ylthio)phenyl)phthalazin-1-amine], the results for the IC50 on AuroraA-TPX2 and at AuroraB were 0.057 µM and 0.023 µM, respectively.

Turning to `CS(=O)(=O)CCOc1ccc2nccc(Sc3ccc(Nc4nnc(-c5ccc(Cl)cc5)c5ccccc45)cc3)c2c1` [Example 390, 4-(4-Chlorophenyl)-N-(4-(6-(2-(methylsulfonyl)ethoxy)quinolin-4-ylthio)phenyl)phthalazin-1-amine], the IC50 at AuroraA-TPX2 and on AuroraB was greater than 125 µM in each case.

For the compound `Cc1cc2nccc(Sc3ccc(Nc4nnc(-c5ccc(Cl)cc5)c5ccccc45)cc3)c2o1` [compound 491], the figures for the IC50 on AuroraA-TPX2 and at AuroraB were 0.15 µM and 0.039 µM, respectively.

As for `CCc1cc(-c2ccccc2)nnc1Nc1ccc(Oc2ccnc3cc(C(N)=O)ccc23)cc1` [compound 49, 4-((4-((4-ethyl-6-phenyl-3-pyridazinyl)amino)phenyl)oxy)-7-quinolinecarboxamide], the IC50 was found to be 0.021 µM at AuroraA-TPX2 and 0.001 µM at AuroraB.

With `N#Cc1cnc2c(Oc3ccc(Nc4nnc(-c5ccccc5)c5ccccc45)cc3)ccnc2c1` [Example 44, 8-(4-(4-phenylphthalazin-1-ylamino)phenoxy)-1,5-naphthyridine-3-carbonitrile], the IC50 at AuroraA-TPX2 is 0.332 µM; at AuroraB it was 0.015 µM.

Consider `COc1cnc2c(Oc3ccc(Nc4nnc(-c5ccc(C)nc5F)c5ccccc45)cc3)ccnc2c1` [compound 178, 4-(2-fluoro-6-methyl-3-pyridinyl)-N-(4-((7-(methyloxy)-1,5-naphthyridin-4-yl)oxy)phenyl)-1-phthalazinamine], for which the results for the IC50 on AuroraA-TPX2 and at AuroraB were 0.035 µM and 0.002 µM, respectively.

Consider `COc1cc2nccc(Oc3ccc(Nc4nnc(N5CCN(C)CC5)c5ccccc45)cc3)c2cn1` [compound 109, N-(4-((7-(methyloxy)-1,6-naphthyridin-4-yl)oxy)phenyl)-4-(4-methyl-1-piperazinyl)-1-phthalazinamine], for which the IC50 at AuroraA-TPX2 is 0.06 µM; on AuroraB, 0.001 µM.

On to `COc1cnc2c(Oc3ccc(Nc4nnc(-c5ccc(Cl)c(OCCS(C)(=O)=O)c5)c5ccccc45)cc3)ccnc2c1` [Example 394, 4-(4-Chloro-3-(2-(methylsulfonyl)ethoxy)phenyl)-N-(4-(7-methoxy-1,5-naphthyridin-4-yloxy)phenyl)phthalazin-1-amine], for which the IC50 was found to be 0.015 µM on AuroraA-TPX2 and 0.009 µM on AuroraB.

Take `COc1ccc2c(C(C)c3ccc(Nc4nnc(-c5ccc(Cl)cc5)c5ccccc45)cc3)ccnc2c1` (stereo not drawn) [compound 613]: the IC50 on AuroraA-TPX2 is greater than 25 µM; at AuroraB, 0.243 µM.

For the compound `COc1cccc(-c2nnc(Nc3ccc(Oc4ccnc5ccccc45)c(F)c3)c3ccccc23)n1` [compound 186, N-(3-fluoro-4-(4-quinolinyloxy)phenyl)-4-(6-(methyloxy)-2-pyridinyl)-1-phthalazinamine], the results for the IC50 on AuroraA-TPX2 and at AuroraB were 0.059 µM and 0.002 µM, respectively.

With `COc1cnc2c(Oc3ccc(Nc4nnc(-c5ccc(C)c(Cl)c5)c5ccccc45)cc3)ccnc2c1` [compound 224, 4-(3-chloro-4-methylphenyl)-N-(4-((7-(methyloxy)-1,5-naphthyridin-4-yl)oxy)phenyl)-1-phthalazinamine], the figures for the IC50 on AuroraA-TPX2 and on AuroraB were 0.034 µM and 0.011 µM, respectively.

Turning to `COc1cnc2c(Oc3ccc(Nc4nnc(-c5ncc(C)s5)c5ccccc45)cc3)ccnc2c1` [compound 189, N-(4-((7-(methyloxy)-1,5-naphthyridin-4-yl)oxy)phenyl)-4-(5-methyl-1,3-thiazol-2-yl)-1-phthalazinamine], the results for the IC50 at AuroraA-TPX2 and on AuroraB were 0.022 µM and 0.009 µM, respectively.

(Values after patent US8557816B2, “Aurora kinase modulators and method of use” (Amgen Inc., priority 2007, dated 2013).)
